How the values were obtained:
[1] = cited from earlier work
NOD mice = assay: Diabetes onset in NOD mice after oral gavage; type: in vivo, mouse; conditions: amount identical to that used in Tofa-NLC; ongoing group
Text: FIG. 13. Oral administration of Tofa-NLC delays diabetes onset. We tested the effect of Tofa-NLC administration via oral gavage to two treatment groups: 1) 3 week-old NOD mice (corresponding to Pre-stage 1 in human patients) and 2) 10 week-old NOD mice (corresponding to advanced Stage 1 in human patients).
All these characteristics indicate that LNp would be a most valuable delivery system for the tissue selective actuation of a combination immunotherapy. We then began to define the effects of a transient administration of Tofa-NLC on diabetes development in NOD mice. […] We then tested the effect of Tofa-NLC administration via oral gavage to two treatment groups: 1) 3 week-old NOD mice (corresponding to Pre-stage 1 in human patients) and 2) 10 week-old NOD mice (corresponding to advanced Stage 1 in human patients). […] In particular, oral administration to 3-week-old NOD mice prevented onset of disease in 70% of the animals for more than 40 weeks.

Treg cells = assay: T cell CFSE-Proliferation-Assay of Treg suppressive activity; type: cell-based; conditions: Treg at 2:1 or 4:1 T cell to Treg ratio; Tofa at 0.5 or 1 μM
Protocol: FIG. 3. […] Results of CFSE-Proliferation-Assay conducted with the addition of Treg cells (at either 2:1 or 4:1 T cell to Treg ratio) and Tofa (at 0.5 or 1 μM). Values are normalized to the extent of proliferation measured with no Treg.

[2] = tested on: bone marrow derived dendritic cells (DC); assay: DC maturation in response to LPS with soluble Tofa (flow cytometry, ELISA); type: cell-based, mouse
Protocol: FIGS. 2A-2B. Jak inhibition impacts APC maturation. 2A, Representative graphs of surface expression of maturation markers on DC left untreated or exposed overnight to LPS+/−Tofa. 2B, Supernatants from DC cultures were tested for accumulation of the indicated cytokines by ELISA. n=3.
The latter two have been implicated in T1D development and inhibition of their accumulation would be a valuable effect.

Substance | Solubility in Dimethyl Sulfoxide [1] | therapeutic effect on diabetes development (NOD mice) | suppressive activity of Treg (Treg cells) | release of inflammatory cytokines IL-6, IL-1, TNF-α ([2]; DC culture supernatants, ELISA) | up-regulation of CD80 and CD86 costimulatory molecules ([2]; DC exposed to LPS +/- Tofa) | up-regulation of MHC-II molecules ([2]; DC exposed to LPS +/- Tofa)
Filgotinib | 85 mg/mL |  |  |  |  | 
Tofacitinib |  | inferior (if not absent) therapeutic effect | preservation of regulatory activity | reduction in release of the prototypical inflammatory cytokines | significant inhibition of the up-regulation of CD80 and CD86 costimulatory molecules | did not prevent the up-regulation of MHC-II molecules
